Laboratory results from ChEMBL document CHEMBL1201862, “PubChem BioAssay data set” (2004).
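Compound exposure: 48 hours, 5 concentrations, 96-well plates. Abbreviation: GI50, concentration required for 50% inhibition of growth.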 Active and inactive are the calls of the source. Cut-off read from the data, not from the text of the source: active = GI50 up to about 1.1 µM and inactive = higher. Numbered stars: 1 amine (or outer) side, 2 acyl side, 3 side chain; on linkers, the order of the positions; unused ones are H or OH. Bridge positions count the residues as written; N and C are the ends. Square brackets hold non-standard residues; d marks the D form. Peptide text beside a SMILES is read from it. * marks the point of attachment. ξ: configuration not given here. X33 = O=C(C(CCCCNO[*:3])N[*:1])[*:2]; Fmoc = O=C(OCC1c2ccccc2-c2ccccc21)*; ξW = NC(Cc1c[nH]c2ccccc12)C(=O)O; ξP = O=C(O)C1CCCN1

Key:
Experiment in all cases: inhibition of tumour cell growth, NCI panel, 48 h
OVCAR-8 = system: OVCAR-8
DU-145 = system: DU-145
MDA-MB-435 = system: MDA-MB-435
HOP-92 = system: HOP-92
BT-549 = system: BT-549
UO-31 = system: UO-31
SW-620 = system: SW-620
TK-10 = system: TK-10
SNB-19 = system: SNB-19
NCI-H460 = system: NCI-H460
IGROV-1 = system: IGROV-1
UACC-62 = system: UACC-62
UACC-257 = system: UACC-257
MCF7 = system: MCF7
Malme-3M = system: Malme-3M
M14 = system: M14
Hs-578T = system: Hs-578T
786-0 = system: 786-0
SN12C = system: SN12C
HL-60 = system: HL-60
NCI-H23 = system: NCI-H23
SF-295 = system: SF-295
MDA-MB-231 = system: MDA-MB-231
MOLT-4 = system: MOLT-4
NCI-H226 = system: NCI-H226
SNB-75 = system: SNB-75
NCI/ADR-RES = system: NCI/ADR-RES
T47D = system: T47D
EKVX = system: EKVX
HCT-116 = system: HCT-116
SR = system: SR
OVCAR-4 = system: OVCAR-4
HCT-15 = system: HCT-15
SF-268 = system: SF-268
HCC 2998 = system: HCC 2998
CCRF-CEM = system: CCRF-CEM
RXF 393 = system: RXF 393
CAKI-1 = system: CAKI-1
NCI-H522 = system: NCI-H522
OVCAR-3 = system: OVCAR-3
COLO 205 = system: COLO 205
ACHN = system: ACHN
K562 = system: K562
LOX IMVI = system: LOX IMVI
RPMI-8226 = system: RPMI-8226
SK-MEL-28 = system: SK-MEL-28
U-251 = system: U-251
SK-MEL-2 = system: SK-MEL-2
PC-3 = system: PC-3
OVCAR-5 = system: OVCAR-5
SK-MEL-5 = system: SK-MEL-5
A549 = system: A549
SK-OV-3 = system: SK-OV-3
HOP-62 = system: HOP-62
HT-29 = system: HT-29
KM12 = system: KM12
A498 = system: A498
SF-539 = system: SF-539

Measured: GI50

O=C1Nc2cccc3cc(NCC(O)CCl)cc1c23 (stereo not given)
48.9 µM: HCT-15
inactive: OVCAR-8 48.9 µM | DU-145 97.5 µM | MDA-MB-435 54.2 µM | HOP-92 55.5 µM | BT-549 39.9 µM | UO-31 31.3 µM | SW-620 40.5 µM | TK-10 75.5 µM | SNB-19 53.6 µM | NCI-H460 > 100 µM | IGROV-1 59 µM | UACC-62 49.9 µM | UACC-257 > 100 µM | MCF7 45.7 µM | Malme-3M 88.1 µM | M14 56.1 µM | Hs-578T 38 µM | 786-0 55 µM | SN12C 41.8 µM | HL-60 > 100 µM | NCI-H23 > 100 µM | SF-295 73.1 µM | MDA-MB-231 > 100 µM | MOLT-4 22.8 µM | NCI-H226 > 100 µM | SNB-75 25.4 µM | NCI/ADR-RES 64.7 µM | T47D 88.5 µM | EKVX 32.5 µM | HCT-116 33.7 µM | SR 11.7 µM | OVCAR-4 > 100 µM | SF-268 38.4 µM | HCC 2998 91 µM | CCRF-CEM 22.2 µM | RXF 393 76.9 µM | CAKI-1 35.2 µM | NCI-H522 59.2 µM | OVCAR-3 51.4 µM | COLO 205 77.4 µM | ACHN 30.3 µM | K562 91.2 µM | LOX IMVI 27.3 µM | RPMI-8226 > 100 µM | SK-MEL-28 > 100 µM | U-251 32.9 µM | SK-MEL-2 21.5 µM | PC-3 38.8 µM | OVCAR-5 > 100 µM | SK-MEL-5 49.8 µM | A549 56.9 µM | SK-OV-3 28.6 µM | HOP-62 49.9 µM | HT-29 58.7 µM | KM12 35.2 µM

COc1ccc(CCCNC(=O)c2cc(OC)c(OC)cc2CCO)cc1OC
inactive: OVCAR-8 > 100 µM | DU-145 > 100 µM | MDA-MB-435 > 100 µM | HOP-92 > 100 µM | BT-549 > 100 µM | UO-31 > 100 µM | SW-620 > 100 µM | TK-10 > 100 µM | SNB-19 > 100 µM | NCI-H460 > 100 µM | IGROV-1 > 100 µM | UACC-62 > 100 µM | UACC-257 > 100 µM | MCF7 > 100 µM | M14 > 100 µM | Hs-578T > 100 µM | 786-0 > 100 µM | SN12C > 100 µM | HL-60 > 100 µM | NCI-H23 > 100 µM | SF-295 > 100 µM | MDA-MB-231 > 100 µM | MOLT-4 > 100 µM | NCI-H226 > 100 µM | SNB-75 > 100 µM | A498 > 100 µM | NCI/ADR-RES > 100 µM | T47D > 100 µM | EKVX > 100 µM | SF-539 > 100 µM | HCT-116 > 100 µM | SR > 100 µM | OVCAR-4 > 100 µM | SF-268 > 100 µM | HCC 2998 > 100 µM | CCRF-CEM > 10 µM | RXF 393 > 100 µM | CAKI-1 > 100 µM | NCI-H522 > 100 µM | OVCAR-3 > 100 µM | COLO 205 > 100 µM | ACHN > 100 µM | K562 > 100 µM | LOX IMVI > 100 µM | RPMI-8226 > 100 µM | SK-MEL-28 > 100 µM | U-251 > 100 µM | SK-MEL-2 > 100 µM | PC-3 > 100 µM | OVCAR-5 > 100 µM | SK-MEL-5 > 100 µM | A549 > 100 µM | SK-OV-3 > 100 µM | HOP-62 > 100 µM | HT-29 > 100 µM | KM12 > 100 µM
> 100 µM: HCT-15

NC(=O)CNC(=O)C1CCCN1C(=O)C1CCCCNOC(=O)CC[C@@H](NC(=O)OCC2c3ccccc3-c3ccccc32)C(=O)NC(Cc2c[nH]c3ccccc23)C(=O)N1 (stereo not given in full) (Fmoc-[dE][ξW][X33][ξP]G-NH2; ester 1-3)
> 100 µM: HCT-15
inactive: OVCAR-8 > 100 µM | DU-145 > 100 µM | MDA-MB-435 > 100 µM | HOP-92 > 100 µM | BT-549 > 100 µM | UO-31 20.7 µM | SW-620 > 100 µM | TK-10 > 100 µM | SNB-19 > 100 µM | NCI-H460 > 100 µM | IGROV-1 > 100 µM | UACC-62 > 100 µM | UACC-257 > 100 µM | MCF7 > 100 µM | Malme-3M > 100 µM | M14 64.4 µM | Hs-578T > 100 µM | 786-0 > 100 µM | SN12C > 100 µM | HL-60 > 100 µM | NCI-H23 > 100 µM | SF-295 > 100 µM | MDA-MB-231 30.6 µM | MOLT-4 > 100 µM | NCI-H226 > 100 µM | SNB-75 > 100 µM | NCI/ADR-RES > 100 µM | T47D > 100 µM | EKVX > 100 µM | SF-539 > 100 µM | HCT-116 > 100 µM | SR > 100 µM | OVCAR-4 > 100 µM | SF-268 > 100 µM | HCC 2998 > 100 µM | CCRF-CEM > 100 µM | RXF 393 > 100 µM | CAKI-1 > 100 µM | NCI-H522 > 100 µM | OVCAR-3 > 100 µM | COLO 205 > 100 µM | ACHN > 100 µM | K562 > 100 µM | LOX IMVI > 100 µM | RPMI-8226 > 100 µM | SK-MEL-28 > 100 µM | U-251 > 100 µM | SK-MEL-2 > 100 µM | PC-3 > 100 µM | OVCAR-5 63.5 µM | SK-MEL-5 > 100 µM | A549 > 100 µM | SK-OV-3 > 100 µM | HOP-62 > 100 µM | HT-29 > 100 µM | KM12 > 100 µM
